# Assay results published in ChEMBL document CHEMBL1154172, “Synthesis and anti-inflammatory evaluation of novel angularly or linearly fused coumarins” (Eur J Med Chem, 2009).
# The source made the active and inactive calls. The rule behind the calls is not given here.
# Experiments:
# [1] = tested on: Radical scavenging activity; assay: Antioxidant activity assessed as DPPH free radical scavenging activity at 0.1 mM after 60 mins; type: functional
# [2] = Antioxidant activity against Fe3+/ascorbic acid system generated hydroxyl radicals assessed as inhibition of formaldehyde production at 0.1 mM; type: functional; parameters: scale not given: the % may be the effect or the level left
# Rattus norvegicus [3] = assay: Antiinflammatory activity in Fisher 344 rat assessed as inhibition of carrageenan-induced paw edema at 0.01 mmol/kg, ip after 3.5 hrs; type: functional; conditions: Fisher 344, ip
# [4] = tested on: Radical scavenging activity; assay: Antioxidant activity assessed as DPPH free radical scavenging activity at 0.05 mM after 60 mins; type: functional
# [5] = Antioxidant activity assessed as superoxide radical scavenging activity at 0.1 mM after 2 mins by nitroblue tetrazolium method; type: functional
# [6] = tested on: Radical scavenging activity; assay: Antioxidant activity assessed as DPPH free radical scavenging activity at 0.1 mM after 20 mins; type: functional
# [7] = tested on: Radical scavenging activity; assay: Antioxidant activity assessed as DPPH free radical scavenging activity at 0.05 mM after 20 mins; type: functional
# [8] = Inhibition of soybean lipoxygenase assessed as conversion of sodium linoleate to 13-hydroperoxylinoleic acid; parameters: species or system Glycine max
# Rattus norvegicus [9] = assay: Toxicity in Fisher 344 rat assessed as melena defecation at 0.01 mmol/kg, ip administered daily once for 4 days measured after 24 hrs final post dose; type: organism-based; conditions: in vivo
# Rattus norvegicus [10] = assay: Toxicity in Fisher 344 rat assessed as gastrointestinal ulcer at 0.01 mmol/kg, ip administered daily once for 4 days measured after 24 hrs final post dose; type: organism-based; conditions: in vivo
# [11] = Toxicity in Fisher 344 rat assessed as mortality at 0.01 mmol/kg, ip administered daily once for 4 days measured after 24 hrs final post dose; type: organism-based; conditions: in vivo, read-out: Activity
# Rattus norvegicus [12] = assay: Toxicity in Fisher 344 rat assessed as body weight change per 100 g of animal at 0.01 mmol/kg, ip administered daily once for 4 days measured after 24 hrs final post dose; type: organism-based; conditions: in vivo
# Glycine max = assay: Inhibition of soybean lipoxygenase assessed as conversion of sodium linoleate to 13-hydroperoxylinoleic acid at 0.1 mM
Compound,Activity [1],Activity [2],inhibition in vivo at 10 µmol/kg (Rattus norvegicus [3]) [%],Activity [4] [%],Activity [5],Activity [6],Activity [7] [%],IC50 [8] [µM],Activity (Rattus norvegicus [9]),Activity (Rattus norvegicus [10]) [%],mortality at 24 h [11] [%],Activity (Rattus norvegicus [12]) [g],inhibition (Glycine max) [%]
COC(=O)c1cc(=O)oc2c3c(ccc12)CCCC3,inactive,inactive,62,31,inactive,inactive,27,100,,,,,
COc1ccc2c(c1)c(CC(=O)O)c(C)n2C(=O)c1ccc(Cl)cc1 [INDOMETHACIN],,,47,,,,,,Non-toxic,78,50,-9,
O=C(O)/C=C/c1ccc(O)c(O)c1 [CAFFEIC ACID],,,,,46%,,,600,,,,,
COC(=O)c1cc(=O)oc2ccc3c(c12)CCCC3,20%,53%,34,17,inactive,18%,14,,,,,,31
COC(=O)c1cc(=O)oc2cc3c(cc12)OCO3,21%,78%,45.5,18,,9%,12,,,,,,0
O=c1ccc2ccc3c(c2o1)CCCC3,inactive,inactive,54,15,16%,inactive,25,,,,,,4
Cc1c(C)c2c(c(C)c1O)CCC(C)(C(=O)O)O2 (centres undefined),,88%,,,,,,,,,,,
CC(Cc1ccc(O)c(O)c1)C(C)Cc1ccc(O)c(O)c1 (centres undefined),83%,,,81,,65%,63,,,,,,
COC(=O)c1cc(=O)oc2cc3c(cc12)CCC3,27%,64%,,22,,14%,19,,,,,,10
COC(=O)c1cc(=O)oc2c3c(ccc12)OC(C)(C)C3,inactive,72%,65,12,inactive,inactive,11,,Toxic,0,0,2.5,4
COC(=O)c1cc(=O)oc2cc3c(cc12)CCCC3,25%,74%,43.4,21,100%,12%,12,,,,,,78
